According to EPA's ToxRefDB 2:

Columns and labels:
mouse [1] = conditions: Carcinogenicity, b6c3f1, Oral, Gavage/Intubation, dose end: 2 year, group: systemic
rat [2] = conditions: Carcinogenicity, fischer, Oral, Gavage/Intubation, dose end: 2 year, group: systemic
mouse [3] = conditions: Subchronic oral toxicity in rodents, b6c3f1, Gavage/Intubation, dose end: 16 week, group: systemic
rat [4] = conditions: Subchronic oral toxicity in rodents, fischer, Gavage/Intubation, dose end: 16 week
mouse [5] = conditions: Carcinogenicity; b6c3f1; Oral; Feed; dose end: 104 week; group: systemic; systemic / pathology microscopic / spleen / hematopoietic cell proliferation + systemic / pathology microscopic / stomach / hyperkeratosis
rat [6] = conditions: Combined chronic toxicity/carcinogenicity; wistar; Oral; Feed; dose end: 2 year; group: systemic; systemic / in life observation / clinical signs / aggressive behavior + systemic / in life observation / clinical signs / excitation + …
dog [7] = conditions: Chronic toxicity; beagle; Oral; Capsule; dose end: 104 PND; group: systemic; systemic / in life observation / clinical signs / [other]
mouse [8] = conditions: Carcinogenicity, cd1, Oral, Feed, dose end: 18 month, group: systemic
rat [9] = conditions: Combined chronic toxicity/carcinogenicity, sprague dawley, Oral, Feed, dose end: 24 month, group: systemic
rat [10] = conditions: Prenatal developmental toxicity study, sprague dawley, Oral, Gavage/Intubation, dose end: 15 GD
dog [11] = conditions: Chronic toxicity, beagle, Oral, Feed, dose end: 52 week, group: systemic
rat [12] = conditions: Subchronic oral toxicity in rodents, sprague dawley, Feed, dose end: 90 day, group: systemic
rat [13] = conditions: Subchronic oral toxicity in rodents, sprague dawley, Gavage/Intubation, dose end: 90 day, group: systemic
mouse [14] = conditions: Subchronic oral toxicity in rodents, b6c3f1, Water, dose end: 10 week, group: systemic
mouse [15] = conditions: Carcinogenicity, b6c3f1, Oral, Water, dose end: 96 week, group: systemic
rat [16] = conditions: Carcinogenicity; other; Oral; Feed; dose end: 78 week; group: systemic; systemic / in life observation / clinical signs / abdominogenital staining + systemic / in life observation / clinical signs / fur (altered …
mouse [17] = conditions: Carcinogenicity, b6c3f1, Oral, Gavage/Intubation, dose end: 91 week, group: systemic
rat [18] = conditions: Multigenerational reproductive toxicity study; sprague dawley; Oral; Water; dose end: 1 generation; group: reproductive; reproductive / offspring survival early / litter size / litter size + reproductive / offspring survival early / live fetuses / live fetuses
mouse [19] = conditions: Carcinogenicity, b6c3f1, Oral, Feed, dose end: 103 week, group: systemic
rat [20] = conditions: Carcinogenicity, fischer, Oral, Feed, dose end: 103 week, group: systemic
mouse [21] = conditions: Subchronic oral toxicity in rodents, b6c3f1, Feed, dose end: 13 week, group: systemic
rat [22] = conditions: Subchronic oral toxicity in rodents, fischer, Feed, dose end: 13 week, group: systemic
[23] = systemic / pathology microscopic / kidney / karyomegaly
[24] = systemic / pathology microscopic / kidney / karyomegaly + systemic / pathology microscopic / harderian gland / adenoma
[25] = systemic / pathology microscopic / brain / degeneration + systemic / clinical chemistry / alanine aminotransferase (alt/sgpt) / alanine …
[26] = systemic / pathology microscopic / brain / degeneration + systemic / pathology microscopic / brain / necrosis + systemic / pathology …
[27] = systemic / pathology microscopic / kidney / cytomegaly + systemic / pathology microscopic / kidney / karyomegaly + systemic / organ weight…
[28] = group: cholinesterase, cholinesterase / cholinesterase / cholinesterase / cholinesterase (che)
[29] = group: systemic, systemic / organ weight / kidney / absolute + systemic / organ weight / kidney / relative to body weight + systemic / organ weight / liver…
[30] = systemic / pathology microscopic / nerve / degeneration + systemic / pathology microscopic / spinal cord / degeneration + systemic / …
[31] = systemic / clinical chemistry / gamma glutamyl transferase (ggt) / gamma glutamyl transferase (ggt)
[32] = group: developmental, developmental / developmental malformation / bone / enlarged fontanel + developmental / developmental malformation / bone / incomplete …
[33] = group: maternal, systemic / in life observation / body weight / body weight gain
[34] = systemic / in life observation / clinical signs / ataxia + systemic / pathology microscopic / brain / vacuolization
[35] = systemic / in life observation / clinical signs / ataxia + systemic / pathology microscopic / brain / vacuolization + systemic / in life …
[36] = systemic / pathology microscopic / spleen / hyperplasia + systemic / clinical chemistry / calcium / calcium + systemic / clinical chemistry…
[37] = systemic / clinical chemistry / creatinine / creatinine + systemic / clinical chemistry / phosphorus / phosphorus + systemic / clinical …
[38] = systemic / in life observation / clinical signs / general pallor + systemic / in life observation / clinical signs / lethargy + systemic / …
[39] = systemic / in life observation / mortality / mortality + systemic / pathology microscopic / kidney / degeneration + systemic / pathology …
[40] = systemic / organ weight / brain / relative to body weight
[41] = systemic / organ weight / brain / relative to body weight + systemic / organ weight / heart / relative to body weight + systemic / organ …
[42] = systemic / pathology microscopic / adrenal gland / pheochromocytoma nos + systemic / pathology microscopic / liver / carcinoma + systemic / …
[43] = systemic / pathology microscopic / liver / carcinoma + systemic / in life observation / mortality / mortality + systemic / in life …
[44] = systemic / in life observation / body weight / body weight
[45] = systemic / in life observation / body weight / body weight + systemic / in life observation / clinical signs / [other] + systemic / in life …
[46] = systemic / in life observation / body weight / body weight + systemic / in life observation / clinical signs / aggressive behavior + …
[47] = systemic / in life observation / clinical signs / ocular discharge + systemic / in life observation / clinical signs / aggressive behavior…
[48] = systemic / in life observation / food consumption / food consumption + systemic / organ weight / liver / absolute

O=P(OCCCl)(OCCCl)OCCCl [Tris(2-chloroethyl) phosphate]
LOAEL (mouse [1]; [23]): 175 mg/kg/day | NOAEL (mouse [1]; [23]): < 175 mg/kg/day | LEL (mouse [1]; [24]): 175 mg/kg/day | NEL (mouse [1]; [24]): < 175 mg/kg/day | NEL (rat [2]; [25]): 44 mg/kg/day | NOAEL (rat [2]; [25]): 44 mg/kg/day | LEL (rat [2]; [26]): 88 mg/kg/day | LOAEL (rat [2]; [26]): 88 mg/kg/day | LEL (mouse [3]; systemic / organ weight / liver / absolute + systemic / organ weight / liver / relative to body weight + systemic / organ weight / kidney / …): 175 mg/kg/day | LOAEL (mouse [3]; systemic / pathology microscopic / kidney / cytomegaly + systemic / pathology microscopic / kidney / karyomegaly): 700 mg/kg/day | NEL (mouse [3]; [27]): 88 mg/kg/day | NOAEL (mouse [3]; [27]): 350 mg/kg/day | LEL (rat [4]; [28]): 175 mg/kg/day | LOAEL (rat [4]; [28]): 175 mg/kg/day | NEL (rat [4]; [28]): 88 mg/kg/day | NOAEL (rat [4]; [28]): 88 mg/kg/day | LOAEL (rat [4]; group: systemic, systemic / in life observation / clinical signs / hyperactivity + systemic / pathology microscopic / brain / necrosis): 175 mg/kg/day | LEL (rat [4]; [29]): 44 mg/kg/day | NEL (rat [4]; [29]): 22 mg/kg/day | NOAEL (rat [4]; [29]): 88 mg/kg/day

Cc1ccc(N=CN(C)C=Nc2ccc(C)cc2C)c(C)c1 [Amitraz]
LEL (mouse [5]): 2.31 mg/kg/day | LOAEL (mouse [5]): 2.31 mg/kg/day | NEL (mouse [5]): < 2.31 mg/kg/day | NOAEL (mouse [5]): < 2.31 mg/kg/day | LEL (rat [6]): 3.13 mg/kg/day | LOAEL (rat [6]): 3.13 mg/kg/day | NEL (rat [6]): 0.97 mg/kg/day | NOAEL (rat [6]): 0.97 mg/kg/day | LEL (dog [7]): 1 mg/kg/day | LOAEL (dog [7]): 1 mg/kg/day | NEL (dog [7]): 0.25 mg/kg/day | NOAEL (dog [7]): 0.25 mg/kg/day

Cc1cc(C)nc(NC(=O)NS(=O)(=O)c2ccccc2C(=O)OC2COC2)n1 [Oxasulfuron]
LOAEL (mouse [8]; systemic / pathology microscopic / nerve / degeneration + systemic / pathology microscopic / spinal cord / degeneration): 99.1 mg/kg/day | LEL (mouse [8]; systemic / pathology microscopic / nerve / degeneration + systemic / pathology microscopic / spinal cord / degeneration + systemic / organ …): 99.1 mg/kg/day | NEL (mouse [8]; [30]): 1.5 mg/kg/day | NOAEL (mouse [8]; [30]): 1.5 mg/kg/day | LEL (rat [9]; [31]): 0.84 mg/kg/day | LOAEL (rat [9]; [31]): 83 mg/kg/day | NEL (rat [9]; [31]): < 0.84 mg/kg/day | NOAEL (rat [9]; systemic / clinical chemistry / gamma glutamyl transferase (ggt) / gamma glutamyl transferase (ggt) + systemic / pathology microscopic / …): 8.3 mg/kg/day | LEL (rat [10]; [32]): 1000 mg/kg/day | LOAEL (rat [10]; [32]): 1000 mg/kg/day | NEL (rat [10]; [32]): 300 mg/kg/day | NOAEL (rat [10]; [32]): 300 mg/kg/day | LEL (rat [10]; [33]): 1000 mg/kg/day | LOAEL (rat [10]; [33]): 1000 mg/kg/day | NEL (rat [10]; [33]): 300 mg/kg/day | NOAEL (rat [10]; [33]): 300 mg/kg/day | LEL (dog [11]; [34]): 10.7 mg/kg/day | LOAEL (dog [11]; [34]): 10.7 mg/kg/day | NEL (dog [11]; [35]): 1.3 mg/kg/day | NOAEL (dog [11]; [35]): 1.3 mg/kg/day | LEL (rat [12]; systemic / clinical chemistry / chloride / chloride + systemic / clinical chemistry / cholesterol / cholesterol): 15.3 mg/kg/day | LOAEL (rat [12]; systemic / pathology microscopic / spleen / hyperplasia): 316 mg/kg/day | NEL (rat [12]; [36]): 0.62 mg/kg/day | NOAEL (rat [12]; [36]): 15.3 mg/kg/day

O=c1c(C2CC(c3ccc(-c4ccc(Br)cc4)cc3)Cc3ccccc32)c(O)sc2ccccc12 (stereo unspecified) [Difethialone]
LEL (rat [13]; [37]): 0.002 mg/kg/day | NEL (rat [13]; [37]): < 0.002 mg/kg/day | LOAEL (rat [13]; [38]): 0.008 mg/kg/day | NOAEL (rat [13]; [38]): 0.004 mg/kg/day

O=C1O[C@H]([C@H](O)CO)C([O-])=C1O.[Na+] [Sodium erythorbate (1:1)]
NEL (mouse [14]; systemic / in life observation / body weight / body weight gain + systemic / in life observation / mortality / mortality + systemic / …): 3330 mg/kg/day | LEL (mouse [14]; systemic / in life observation / body weight / body weight gain + systemic / pathology microscopic / kidney / degeneration + systemic / …): 6670 mg/kg/day | LOAEL (mouse [14]; [39]): > 13300 mg/kg/day | NOAEL (mouse [14]; [39]): ≥ 13300 mg/kg/day | LEL (mouse [15]; [40]): 1670 mg/kg/day | NEL (mouse [15]; [40]): < 1670 mg/kg/day | LOAEL (mouse [15]; [41]): > 6670 mg/kg/day | NOAEL (mouse [15]; [41]): ≥ 6670 mg/kg/day

ClCC(Cl)Cl [1,1,2-Trichloroethane]
LEL (rat [16]): 46 mg/kg/day | LOAEL (rat [16]): > 92 mg/kg/day | NEL (rat [16]): < 46 mg/kg/day | NOAEL (rat [16]): ≥ 92 mg/kg/day | LOAEL (mouse [17]; [42]): > 390 mg/kg/day | NOAEL (mouse [17]; [42]): ≥ 390 mg/kg/day | LEL (mouse [17]; [43]): 195 mg/kg/day | NEL (mouse [17]; [43]): < 195 mg/kg/day

Oc1ccccc1Cl [2-Chlorophenol]
LEL (rat [18]): 25 mg/kg/day | LOAEL (rat [18]): > 25 mg/kg/day | NEL (rat [18]): 2.5 mg/kg/day | NOAEL (rat [18]): ≥ 25 mg/kg/day

C[C@](N)(Cc1ccc(O)c(O)c1)C(=O)O.C[C@](N)(Cc1ccc(O)c(O)c1)C(=O)O.O.O.O [Methyldopa sesquihydrate]
LOAEL (mouse [19]; [44]): 830 mg/kg/day | NOAEL (mouse [19]; [44]): < 830 mg/kg/day | LEL (mouse [19]; [45]): 830 mg/kg/day | NEL (mouse [19]; [45]): < 830 mg/kg/day | LOAEL (rat [20]; [44]): 110 mg/kg/day | NOAEL (rat [20]; [44]): < 110 mg/kg/day | LEL (rat [20]; [46]): 110 mg/kg/day | NEL (rat [20]; [46]): < 110 mg/kg/day | LEL (mouse [21]; [47]): 465 mg/kg/day | NEL (mouse [21]; [47]): < 465 mg/kg/day | LOAEL (mouse [21]; [23]): 1880 mg/kg/day | NOAEL (mouse [21]; systemic / pathology microscopic / kidney / karyomegaly + systemic / in life observation / body weight / body weight + systemic / in life …): 945 mg/kg/day | LEL (rat [22]; [48]): 155 mg/kg/day | NEL (rat [22]; [48]): < 155 mg/kg/day | LOAEL (rat [22]; systemic / pathology microscopic / kidney / regeneration + systemic / in life observation / body weight / body weight): 625 mg/kg/day | NOAEL (rat [22]; systemic / pathology microscopic / kidney / regeneration + systemic / in life observation / body weight / body weight + systemic / in life …): 315 mg/kg/day
